Data published in patent US20130273027A1, “MUTANT PROTEASES AND METHODS OF USE THEREOF” (Progenra, Inc., priority 2012, published 2013).

Experiments:
USP14 mutant BL2-DNHG = target: T1, USP14 mutant BL2-DNHG (Homo sapiens, UniProt P54578, DEL429-429/S430D/S431N/S432H/S433G); experiment: Screening assay with USP14 mutant BL2-DNHG, ubiquitin-rhodamine 110 cleavage; type: biochemical; details: 1.275 μM mutant USP14 preincubated 30 minutes; Ub-Rh110; normalized to DMSO (0%) and 10 mM NEM (100%); FIG. 8
T1 construct: a full-length cDNA clone encoding full-length USP14 isoform a; 6xHis (N); yeast SUMO (S. cerevisiae Smt3) (N); made in house; host or cells: E. coli (Rosetta 2 (DE3) pLysS stated for the pE-SUMOpro-USP14 construct)
Method: (§1) Another screening assay was performed with the USP14 mutant BL2-DNHG. Test compounds were diluted in DMSO to the appropriate concentration before dispensing 2 μl of each compound into a black walled 96 well plate. The compounds were preincubated with 80 μl of reaction buffer containing 1.275 μM mutant USP14 for 30 minutes before adding 20 μl of 510 nM ubiquitin-rhodamine 110 in reaction buffer. The plates were incubated at room temperature before reading on a fluorimeter equipped with excitation and emission filters of 485 and 528 nm respectively and a 510 nm dichroic mirror within the linear range of the assay.

USP14 mutant BL1-USP21 = target: T2, USP14 mutant BL1-USP21 (Homo sapiens, UniProt P54578, DEL335-341/INS333SRGSI); experiment: Screening assay with USP14 mutant BL1-USP21, ubiquitin-rhodamine 110 cleavage; type: biochemical; details: 63.75 nM mutant USP14 preincubated 30 minutes; Ub-Rh110; normalized to DMSO (0%) and 10 mM NEM (100%); FIG. 7
T2 construct: a full-length cDNA clone encoding full-length USP14 isoform a; made in house; host or cells: E. coli Rosetta 2 (DE3) pLysS
Method: as §1, with “Test” for “Another screening assay was performed with the USP14 mutant BL2-DNHG. Test”, “containing 63.75 nM” for “containing 1.275 μM”, “[…]” for “528 nm”, “assay. […] FIG. 7 provides a graph of the results.” for “assay.”

T1 sequence (P54578 with tags, fused parts or gaps DEL429-429/S430D/S431N/S432H/S433G): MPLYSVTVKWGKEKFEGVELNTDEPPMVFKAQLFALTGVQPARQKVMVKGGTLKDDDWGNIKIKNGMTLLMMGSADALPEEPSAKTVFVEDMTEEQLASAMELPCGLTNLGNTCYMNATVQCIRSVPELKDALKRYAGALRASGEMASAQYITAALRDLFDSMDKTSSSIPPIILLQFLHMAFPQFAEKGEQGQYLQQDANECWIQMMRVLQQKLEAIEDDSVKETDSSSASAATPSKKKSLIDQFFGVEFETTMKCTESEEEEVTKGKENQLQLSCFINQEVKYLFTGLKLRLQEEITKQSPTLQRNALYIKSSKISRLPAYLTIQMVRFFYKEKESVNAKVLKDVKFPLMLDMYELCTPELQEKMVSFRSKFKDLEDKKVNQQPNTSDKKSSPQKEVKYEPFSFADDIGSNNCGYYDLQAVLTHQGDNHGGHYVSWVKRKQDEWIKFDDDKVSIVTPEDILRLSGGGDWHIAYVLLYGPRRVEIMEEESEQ
T2 sequence (P54578 with tags, fused parts or gaps INS333SRGSI/DEL335-341): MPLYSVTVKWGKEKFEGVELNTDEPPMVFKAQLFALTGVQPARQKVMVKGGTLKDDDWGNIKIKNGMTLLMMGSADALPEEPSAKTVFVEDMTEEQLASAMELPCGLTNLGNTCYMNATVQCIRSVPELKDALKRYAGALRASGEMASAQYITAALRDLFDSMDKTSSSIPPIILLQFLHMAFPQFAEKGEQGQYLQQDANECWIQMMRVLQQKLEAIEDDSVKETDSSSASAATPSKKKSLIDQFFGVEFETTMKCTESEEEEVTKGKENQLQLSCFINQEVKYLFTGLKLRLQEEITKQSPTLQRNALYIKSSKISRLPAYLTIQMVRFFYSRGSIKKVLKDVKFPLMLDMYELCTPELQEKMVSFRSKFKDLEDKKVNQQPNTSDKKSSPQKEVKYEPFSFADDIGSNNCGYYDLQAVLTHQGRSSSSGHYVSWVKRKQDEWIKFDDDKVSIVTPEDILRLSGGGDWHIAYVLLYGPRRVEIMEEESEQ

inhibition of USP14 mutant (BL2-DNHG) (USP14 mutant BL2-DNHG)	inhibition of USP14 mutant (BL1-USP21) (USP14 mutant BL1-USP21)	Structure (SMILES)
do not inhibit	do not inhibit	CC(=O)c1cc([N+](=O)[O-])c(Sc2ccc(F)cc2F)s1 [P22077]
inhibit	inhibit	N#CSc1cc(SC#N)c(N)nc1N [PR-619]
